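48-hour exposure; five concentrations; linearly interpolated endpoints. GI50 is the concentration that inhibits growth by half. TGI marks complete inhibition of growth.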 Where only a bound is given, the exact number is not on record here.

Common to all, as to assay: growth of human tumour cells (NCI), 48 h
Test [1] deals with A549 NSCLC.
The subject of test [2] is CCRF-CEM leukemia.
For test [3], the system named is EKVX NSCLC.
The test system of test [4] is HCT-116 colon.
Test [5] relates to IGROV1 ovarian.
Test [6] deals with LOX IMVI melanoma.
In test [7] the test system is OVCAR-8 ovarian.
Test [8] relates to SK-MEL-5 melanoma.
The subject of test [9] is SN12C renal.
Test [10] has as its system UACC-257 melanoma.

Consider `O=C(Nc1ccc(Br)cc1)c1cc(Br)cc(Br)c1O`, for which the GI50 in test [1] is 2.65 µM; in test [2], 3.73 µM; in [3], 1.76 µM; in test [4], 2.41 µM; in [5], 3.02 µM; in [6], 3.24 µM. For the same compound, the GI50 in test [7] is 2.89 µM; in test [8] it was 2.15 µM; in test [9], 2.77 µM; in test [10], 2.08 µM. In addition, the TGI in test [1] was 7.9 µM; in test [2], more than 100 µM; in test [3] it was 7.38 µM; in test [4], 8.31 µM; in test [5], 15.6 µM; in test [6], 10.1 µM. For the same compound, the TGI in [7] stood at 11 µM; in [8], 4.57 µM; in test [9] it was 12.9 µM; in test [10], 5.41 µM.
With `CCCCCCCCCCCCC(SCCNC(=O)CCNC(=O)C(O)C(C)(C)COP(=O)(O)OP(=O)(O)OCC1OC(n2cnc3c(N)ncnc32)C(O)C1OP(=O)(O)O)C(=O)NCC(N)=O` (configuration not stated), the TGI in [1], in [2], in test [3], in [4], in [5] and in test [6] was more than 100 µM throughout. The TGI in test [7], in test [8], in test [9] and in test [10] was more than 100 µM each time.
For the compound `CCOC(=O)C(=O)Nc1c(C)cccc1CC`, the TGI in test [1], in [2], in test [3], in test [4], in test [5] and in [6] was more than 100 µM in each case. For the same compound, the TGI in test [7], in [8], in test [9] and in test [10] was more than 100 µM in each case.
As to `Cn1cc(NC(=O)c2cc(NC(=O)CCCCCC(=O)Nc3cc(C(=O)Nc4cc(C(=O)NCCC(=N)N)n(C)c4)n(C)c3)cn2C)cc1C(=O)NCCC(=N)N`, the TGI in test [1], in test [2], in test [3], in test [4], in [5] and in test [6] was more than 100 µM in each case. For the same compound, the TGI in test [7], in test [8], in [9] and in test [10] was more than 100 µM each time.
Consider `CCCCCCCCCCCC(=O)C1=C(O)C(O)CCC1=O` (configuration not stated), for which the TGI in test [1] is more than 100 µM; in [2], 40.6 µM; in test [3], 34.1 µM; in test [4], 38.5 µM; in test [5], 82.6 µM; in test [6], 28.2 µM. Further, the TGI in [7] was 36.6 µM; in [9] it was 78.3 µM; in test [10], 37.2 µM.
Take `CN(C)CCNC(=O)c1cc([N+](=O)[O-])cc2ccc(-c3ccccc3)nc12`: the TGI is 28 µM in test [1]; 13.6 µM in test [2]; more than 71.4 µM in test [3]; 13.4 µM in [4]; 25.6 µM in test [5]; 30.5 µM in test [6]. Besides, the TGI is more than 39.2 µM in test [7], 11.8 µM in test [8], more than 62.7 µM in test [9] and 20.8 µM in test [10].
`O=C(O)c1nnsc1COCc1ccccc1`: the TGI in test [1], in test [2], in test [3], in test [4], in test [5] and in [6] was more than 100 µM each time. Further, the TGI in [7], in test [8], in test [9] and in [10] was more than 100 µM in each case.
`O=C1NC(=O)C(c2ccccc2Cl)=C1Nc1cccc(O)c1`: the GI50 in test [1] is 11.2 µM; in test [2] it was 7.05 µM; in [3], more than 22.5 µM; in [4], 7.51 µM; in test [5], more than 25 µM; in [6], 15.1 µM. The GI50 is 24.6 µM in test [7], 1.67 µM in [8], more than 19.4 µM in [9] and more than 25 µM in [10]. The TGI in [1], in test [2], in test [3], in [4], in test [5] and in test [6] was more than 25 µM in each case. The TGI in test [7], in test [8], in [9] and in test [10] was more than 25 µM each time.
Consider `N#C/C(=C(\O)C(=O)O)c1ccc(-c2cccc3ccccc23)cc1`, for which the TGI in test [1], in test [2], in test [3], in test [4], in test [5] and in test [6] was more than 100 µM throughout. Moreover, the TGI in [7], in [8], in [9] and in [10] was more than 100 µM throughout.
On to `O=C1/C(=C\c2cccs2)Oc2ccccc21`, for which the TGI in test [1], in [2], in test [3], in test [4], in [5] and in test [6] was more than 100 µM each time. For the same compound, the TGI in [7], in [8], in test [9] and in [10] was more than 100 µM in each case.
Turning to `O=C(O)C(Cc1ccc(O)c([N+](=O)[O-])c1)N1C(=O)c2ccccc2C1=O` (configuration not stated), the TGI in [1], in [2], in [3], in [4], in test [5] and in test [6] was more than 100 µM each time. In addition, the TGI in [7], in test [8], in [9] and in test [10] was more than 100 µM each time.
On to `O=c1oc2c3ccc4ccccc4c3n(Cc3nc4ccccc4[nH]3)c2c2ccccc12`, for which the TGI in [1] is more than 100 µM; in test [2], more than 100 µM; in test [3], more than 31.6 µM; in test [4], more than 100 µM; in [5] it was more than 100 µM; in test [6], more than 100 µM. Moreover, the TGI was more than 100 µM in [7], more than 100 µM in test [9] and more than 90.6 µM in test [10].
Take `Cc1c2ncccc2c(C)c2c1[nH]c1ccccc12`: the TGI in [1] was 21.1 µM; in [2], 35.3 µM; in test [3], 30.7 µM; in test [4], 17.3 µM; in [5] it was 29.4 µM; in test [6], 20.8 µM. Besides, the TGI in test [7] came out at 27.8 µM; in test [9], 26 µM; in test [10] it was 32 µM.

The values above are taken from PubChem BioAssay (NCI).
